From article PMC4207660, “Identification and Characterization of Hundreds of Potent and Selective Inhibitors of Trypanosoma brucei Growth from a Kinase-Targeted Library Screening Campaign” (PLoS Neglected Tropical Diseases, 2014) come the findings set out here.

A short description of series [1]: GSK in-house artificial membrane permeability assay. To be noted: PAMPA, pH 7.4, Measured. Format: in vitro ADME. The protocol:
250 µL and 100 µL 50 mM phosphate buffer pH 7.4 with 0.5% encapsin was applied to the donor and receiver compartments, respectively. 2.5 µL of a 10 mM stock solution of compound in DMSO was added to the donor compartment. The assay was incubated at RT for 3 hours. […] The permeability (logPapp) measures how fast molecules pass through the lipid membrane is expressed in nm/s.

The target of series [2] is Cytochrome P450 (CYP450) (Homo sapiens, UniProt P08684). The series is described as follows: Cytochrome P450 inhibition profile. To be noted: Measured. Format: in vitro ADME. The method, then:
The P450 inhibition profile of the inhibitors was determined as previously described.

Series [3] addresses T1, IKK1 (Homo sapiens, UniProt O15111).
T1 sequence (O15111 1-745): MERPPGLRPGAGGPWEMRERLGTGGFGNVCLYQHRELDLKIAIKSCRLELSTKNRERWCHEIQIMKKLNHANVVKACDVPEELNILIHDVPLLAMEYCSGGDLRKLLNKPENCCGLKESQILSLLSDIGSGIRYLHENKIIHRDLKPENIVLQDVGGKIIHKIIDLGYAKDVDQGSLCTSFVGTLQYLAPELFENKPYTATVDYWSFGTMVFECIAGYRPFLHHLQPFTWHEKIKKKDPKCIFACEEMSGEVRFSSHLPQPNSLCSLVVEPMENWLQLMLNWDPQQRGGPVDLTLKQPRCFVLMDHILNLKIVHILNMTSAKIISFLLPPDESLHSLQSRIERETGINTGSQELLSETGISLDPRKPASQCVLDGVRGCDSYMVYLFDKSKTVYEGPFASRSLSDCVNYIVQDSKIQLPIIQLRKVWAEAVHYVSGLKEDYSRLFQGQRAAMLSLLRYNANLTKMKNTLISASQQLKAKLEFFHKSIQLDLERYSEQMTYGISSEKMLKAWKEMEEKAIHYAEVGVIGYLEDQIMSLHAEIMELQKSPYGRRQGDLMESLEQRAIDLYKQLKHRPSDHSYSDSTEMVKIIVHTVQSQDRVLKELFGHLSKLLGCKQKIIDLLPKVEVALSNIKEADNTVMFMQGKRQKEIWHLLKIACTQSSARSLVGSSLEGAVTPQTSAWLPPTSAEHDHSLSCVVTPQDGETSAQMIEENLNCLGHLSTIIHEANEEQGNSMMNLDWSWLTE
In words: Human kinase selectivity screening: IKK1. It counts as biochemical. To be noted: read-out: IKK1 pIC50 values (converted). The text has this: (§1) These kinases were chosen for general selectivity screening owing to their broad representation of the human kinome.

For series [4], the target named is SYK (Homo sapiens, UniProt P43405). In words: Human kinase selectivity screening: SYK. Format: biochemical. To be noted: read-out: SYK pIC50 values (converted).
Description: as §1

Series [5] deals with JNK1 (Homo sapiens, UniProt P45983). The series is described as follows: Human kinase selectivity screening: JNK1. Format: biochemical. To be noted: read-out: JNK1 pIC50 values (converted).
Sequence of JNK1 (P45983 whole entry): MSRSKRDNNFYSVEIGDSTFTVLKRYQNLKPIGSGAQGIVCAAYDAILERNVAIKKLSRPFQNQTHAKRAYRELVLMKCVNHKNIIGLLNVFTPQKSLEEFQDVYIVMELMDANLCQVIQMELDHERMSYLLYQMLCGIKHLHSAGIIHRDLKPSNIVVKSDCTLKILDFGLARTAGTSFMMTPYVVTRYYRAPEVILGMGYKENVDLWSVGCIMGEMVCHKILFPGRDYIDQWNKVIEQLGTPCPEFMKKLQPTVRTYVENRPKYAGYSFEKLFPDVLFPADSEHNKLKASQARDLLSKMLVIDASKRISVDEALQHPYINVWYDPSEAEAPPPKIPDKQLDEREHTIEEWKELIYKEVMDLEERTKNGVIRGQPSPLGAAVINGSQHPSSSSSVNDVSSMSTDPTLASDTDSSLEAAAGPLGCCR
Description: as §1

For series [6], the target named is ROCK1 (Homo sapiens, UniProt Q13464). In words: Human kinase selectivity screening: ROCK1. Format: biochemical. To be noted: read-out: ROCK1 pIC50 values (converted).
Sequence of ROCK1 (Q13464 whole entry): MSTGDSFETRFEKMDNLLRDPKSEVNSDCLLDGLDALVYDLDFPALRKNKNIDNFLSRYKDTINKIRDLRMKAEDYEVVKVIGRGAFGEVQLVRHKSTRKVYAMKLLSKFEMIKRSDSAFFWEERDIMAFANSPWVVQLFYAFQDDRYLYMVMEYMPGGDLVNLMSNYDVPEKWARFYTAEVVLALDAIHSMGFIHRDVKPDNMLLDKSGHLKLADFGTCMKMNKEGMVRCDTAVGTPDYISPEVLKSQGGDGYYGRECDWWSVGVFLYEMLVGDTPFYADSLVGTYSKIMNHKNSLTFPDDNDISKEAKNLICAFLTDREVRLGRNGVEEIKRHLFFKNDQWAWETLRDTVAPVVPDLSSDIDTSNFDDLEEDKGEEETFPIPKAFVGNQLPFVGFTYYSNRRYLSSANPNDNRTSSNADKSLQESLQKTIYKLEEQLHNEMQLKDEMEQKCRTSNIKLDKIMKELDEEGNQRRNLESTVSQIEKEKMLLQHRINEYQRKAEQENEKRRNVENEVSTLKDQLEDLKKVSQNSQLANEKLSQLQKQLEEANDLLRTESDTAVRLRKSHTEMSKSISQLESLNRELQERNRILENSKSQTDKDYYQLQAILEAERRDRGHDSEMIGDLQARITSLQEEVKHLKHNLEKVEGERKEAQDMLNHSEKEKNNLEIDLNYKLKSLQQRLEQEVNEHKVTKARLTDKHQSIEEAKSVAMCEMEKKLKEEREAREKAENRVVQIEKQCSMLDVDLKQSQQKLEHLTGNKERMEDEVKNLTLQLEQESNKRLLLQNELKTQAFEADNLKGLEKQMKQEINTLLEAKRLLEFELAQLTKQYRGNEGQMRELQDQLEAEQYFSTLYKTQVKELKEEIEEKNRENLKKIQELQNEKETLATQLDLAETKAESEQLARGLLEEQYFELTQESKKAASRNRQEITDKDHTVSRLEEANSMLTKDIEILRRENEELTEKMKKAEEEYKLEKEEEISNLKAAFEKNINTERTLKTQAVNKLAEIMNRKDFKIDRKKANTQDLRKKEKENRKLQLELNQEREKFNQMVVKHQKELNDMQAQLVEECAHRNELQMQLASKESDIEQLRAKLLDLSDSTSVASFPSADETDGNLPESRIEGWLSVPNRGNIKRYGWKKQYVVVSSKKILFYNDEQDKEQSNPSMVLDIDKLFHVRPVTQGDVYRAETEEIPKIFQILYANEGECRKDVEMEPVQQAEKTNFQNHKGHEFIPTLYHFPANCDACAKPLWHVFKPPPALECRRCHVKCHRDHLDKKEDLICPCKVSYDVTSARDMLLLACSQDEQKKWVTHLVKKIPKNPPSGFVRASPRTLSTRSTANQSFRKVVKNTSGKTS
Description: as §1

Series [7] concerns the target T2, JAK3 (Homo sapiens, UniProt P52333).
T2 sequence (P52333 1-1124): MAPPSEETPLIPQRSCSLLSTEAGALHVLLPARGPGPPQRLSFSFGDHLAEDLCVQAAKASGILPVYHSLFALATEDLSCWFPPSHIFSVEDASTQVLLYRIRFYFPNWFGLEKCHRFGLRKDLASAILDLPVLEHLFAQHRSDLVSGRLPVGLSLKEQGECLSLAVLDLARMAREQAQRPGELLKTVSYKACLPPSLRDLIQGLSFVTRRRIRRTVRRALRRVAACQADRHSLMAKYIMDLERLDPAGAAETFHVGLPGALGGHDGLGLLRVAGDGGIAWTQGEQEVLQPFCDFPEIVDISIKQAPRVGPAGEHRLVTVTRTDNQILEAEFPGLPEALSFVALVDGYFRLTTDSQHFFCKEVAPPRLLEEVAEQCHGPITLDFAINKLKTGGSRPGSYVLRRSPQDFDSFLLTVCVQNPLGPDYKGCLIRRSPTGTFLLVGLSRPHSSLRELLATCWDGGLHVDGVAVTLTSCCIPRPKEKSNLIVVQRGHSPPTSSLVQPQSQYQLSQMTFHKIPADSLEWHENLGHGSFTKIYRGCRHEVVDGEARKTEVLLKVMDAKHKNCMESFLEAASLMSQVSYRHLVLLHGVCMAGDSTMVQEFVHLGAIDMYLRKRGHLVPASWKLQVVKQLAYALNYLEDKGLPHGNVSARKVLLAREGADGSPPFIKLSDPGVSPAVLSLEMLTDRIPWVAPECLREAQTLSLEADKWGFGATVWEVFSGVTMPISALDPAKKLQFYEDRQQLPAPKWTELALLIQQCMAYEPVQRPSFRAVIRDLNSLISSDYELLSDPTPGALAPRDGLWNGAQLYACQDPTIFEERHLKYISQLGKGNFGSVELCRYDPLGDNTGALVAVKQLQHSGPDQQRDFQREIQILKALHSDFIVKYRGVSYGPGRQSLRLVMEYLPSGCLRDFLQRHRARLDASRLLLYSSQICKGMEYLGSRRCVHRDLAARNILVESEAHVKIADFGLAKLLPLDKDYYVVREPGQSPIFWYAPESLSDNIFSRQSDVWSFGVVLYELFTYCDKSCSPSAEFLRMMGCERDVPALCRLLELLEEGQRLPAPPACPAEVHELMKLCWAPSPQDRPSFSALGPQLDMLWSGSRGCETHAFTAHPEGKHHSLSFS
In words: Human kinase selectivity screening: JAK3. It counts as biochemical. To be noted: read-out: JAK3 pIC50 values (converted).
Description: as §1

The target of series [8] is LRRK2 (Homo sapiens, UniProt Q5S007). The series is described as follows: Human kinase selectivity screening: LRRK2. It counts as biochemical. To be noted: read-out: LRRK2 pIC50 values (converted).
Sequence of LRRK2 (Q5S007 whole entry): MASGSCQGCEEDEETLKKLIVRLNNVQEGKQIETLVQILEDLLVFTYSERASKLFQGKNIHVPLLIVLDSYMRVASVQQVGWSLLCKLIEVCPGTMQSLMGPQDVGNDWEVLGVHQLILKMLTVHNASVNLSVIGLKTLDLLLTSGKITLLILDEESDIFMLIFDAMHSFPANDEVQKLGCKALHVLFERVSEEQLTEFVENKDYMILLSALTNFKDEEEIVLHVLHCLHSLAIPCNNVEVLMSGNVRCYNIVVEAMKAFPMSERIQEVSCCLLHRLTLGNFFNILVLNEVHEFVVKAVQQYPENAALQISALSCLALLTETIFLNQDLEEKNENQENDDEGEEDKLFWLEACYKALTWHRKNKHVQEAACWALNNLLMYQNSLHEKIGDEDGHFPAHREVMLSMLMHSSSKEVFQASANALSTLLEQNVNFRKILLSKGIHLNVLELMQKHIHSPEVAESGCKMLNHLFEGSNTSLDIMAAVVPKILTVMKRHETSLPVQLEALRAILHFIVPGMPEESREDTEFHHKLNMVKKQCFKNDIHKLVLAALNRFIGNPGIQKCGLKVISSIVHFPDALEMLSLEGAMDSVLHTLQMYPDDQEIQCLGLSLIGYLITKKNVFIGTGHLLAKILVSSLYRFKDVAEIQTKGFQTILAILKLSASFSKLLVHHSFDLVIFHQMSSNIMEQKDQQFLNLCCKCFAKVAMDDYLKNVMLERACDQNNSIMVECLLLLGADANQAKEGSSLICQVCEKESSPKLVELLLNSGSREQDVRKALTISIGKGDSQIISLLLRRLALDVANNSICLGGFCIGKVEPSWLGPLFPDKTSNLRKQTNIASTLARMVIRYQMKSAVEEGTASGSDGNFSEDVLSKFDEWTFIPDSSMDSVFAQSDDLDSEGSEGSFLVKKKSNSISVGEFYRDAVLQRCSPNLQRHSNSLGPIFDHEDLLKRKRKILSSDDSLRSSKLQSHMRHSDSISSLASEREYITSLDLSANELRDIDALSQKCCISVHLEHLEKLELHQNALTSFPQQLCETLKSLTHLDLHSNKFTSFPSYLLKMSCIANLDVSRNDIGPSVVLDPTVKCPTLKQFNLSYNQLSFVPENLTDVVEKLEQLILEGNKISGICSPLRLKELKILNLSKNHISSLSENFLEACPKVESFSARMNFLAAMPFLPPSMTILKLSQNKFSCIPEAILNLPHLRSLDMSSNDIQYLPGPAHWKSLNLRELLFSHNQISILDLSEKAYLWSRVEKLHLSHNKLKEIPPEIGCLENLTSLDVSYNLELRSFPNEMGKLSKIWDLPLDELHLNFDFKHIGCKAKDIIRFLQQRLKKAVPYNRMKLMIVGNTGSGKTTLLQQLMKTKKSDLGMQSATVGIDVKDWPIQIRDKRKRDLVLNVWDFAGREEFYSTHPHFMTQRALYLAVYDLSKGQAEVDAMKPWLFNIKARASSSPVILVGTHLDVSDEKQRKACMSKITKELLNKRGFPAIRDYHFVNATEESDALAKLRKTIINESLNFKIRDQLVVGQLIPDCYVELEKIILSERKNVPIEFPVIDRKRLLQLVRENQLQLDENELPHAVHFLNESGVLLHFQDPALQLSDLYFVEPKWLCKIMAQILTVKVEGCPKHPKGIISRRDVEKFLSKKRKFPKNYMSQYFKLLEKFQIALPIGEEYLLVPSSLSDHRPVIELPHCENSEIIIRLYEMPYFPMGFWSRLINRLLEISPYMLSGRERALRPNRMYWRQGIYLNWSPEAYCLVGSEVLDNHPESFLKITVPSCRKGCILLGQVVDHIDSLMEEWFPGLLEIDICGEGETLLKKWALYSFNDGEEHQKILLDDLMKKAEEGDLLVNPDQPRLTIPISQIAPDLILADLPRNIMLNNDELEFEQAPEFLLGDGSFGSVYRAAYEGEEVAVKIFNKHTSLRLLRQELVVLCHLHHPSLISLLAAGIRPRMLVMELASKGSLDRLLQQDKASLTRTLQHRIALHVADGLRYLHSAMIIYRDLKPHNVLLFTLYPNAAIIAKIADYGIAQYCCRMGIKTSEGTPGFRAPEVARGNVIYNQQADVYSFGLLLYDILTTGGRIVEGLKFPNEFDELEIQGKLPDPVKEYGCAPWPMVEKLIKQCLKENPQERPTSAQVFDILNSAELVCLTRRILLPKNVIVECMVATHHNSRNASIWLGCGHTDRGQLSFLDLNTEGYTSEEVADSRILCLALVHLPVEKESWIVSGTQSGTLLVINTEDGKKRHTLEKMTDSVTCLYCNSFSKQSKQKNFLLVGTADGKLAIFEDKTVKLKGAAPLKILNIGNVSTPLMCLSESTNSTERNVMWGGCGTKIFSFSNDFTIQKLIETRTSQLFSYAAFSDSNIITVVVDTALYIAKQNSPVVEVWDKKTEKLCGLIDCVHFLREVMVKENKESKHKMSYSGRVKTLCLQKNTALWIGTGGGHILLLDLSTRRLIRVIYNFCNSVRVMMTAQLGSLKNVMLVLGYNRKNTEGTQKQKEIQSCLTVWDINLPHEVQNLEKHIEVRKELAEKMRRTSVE
Description: as §1

[9] abbreviates: CYP3A4, VG substrate, read-out: CYP3A4VG pXC50 (converted).
[10] abbreviates: CYP3A4, VR substrate, read-out: CYP3A4VR pXC50 (converted).

Read-outs that look alike come from different tables or passages of the source.

Sequence of Cytochrome P450 (CYP450) (P08684 2-503 limits assumed): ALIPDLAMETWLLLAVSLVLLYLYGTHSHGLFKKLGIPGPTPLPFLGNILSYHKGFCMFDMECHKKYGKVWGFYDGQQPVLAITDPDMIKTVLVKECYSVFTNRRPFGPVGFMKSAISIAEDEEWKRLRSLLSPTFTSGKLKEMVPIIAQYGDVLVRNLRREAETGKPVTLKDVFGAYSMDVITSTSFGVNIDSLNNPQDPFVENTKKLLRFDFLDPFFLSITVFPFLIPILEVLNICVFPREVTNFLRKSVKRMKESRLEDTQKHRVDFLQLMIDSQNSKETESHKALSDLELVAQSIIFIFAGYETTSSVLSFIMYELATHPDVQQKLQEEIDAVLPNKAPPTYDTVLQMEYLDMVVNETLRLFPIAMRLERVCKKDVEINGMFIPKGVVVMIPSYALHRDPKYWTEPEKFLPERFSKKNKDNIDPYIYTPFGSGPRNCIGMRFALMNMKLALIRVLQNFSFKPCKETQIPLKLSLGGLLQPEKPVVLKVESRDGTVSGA

As to `Cn1cc(-c2cnc3[nH]cc(-c4cccc(C#N)c4)c3c2)cn1` [NEU-0001207], the Papp at 3 h, 100 µM in series [1] is 23 ×10⁻⁶ cm/s. Moreover, the IC50 is 1260 nM in series [2] (setting [9]); 20000 nM in series [2] (setting [10]); 158 nM in series [3]; 3160 nM in series [4]; 501 nM in series [5]; 794 nM in series [6]. Moreover, the IC50 in series [7] was 631 nM; in series [8] it was 79.4 nM.
As for `CCCCc1nc(Nc2cccc(C)c2)c2c(=O)[nH]ccc2n1` [NEU-0001191], the IC50 in series [2] (setting [9]) is 79.4 nM; in series [2] (setting [10]), 6310 nM; in series [3] it was over 25100 nM; in series [4], 2510 nM; in series [5], 2000 nM; in series [6], over 25100 nM. Also, the values for the IC50 in series [7] and in series [8] were 200 nM and 63.1 nM, respectively.
On to `O=C(Nc1ccc(-c2ccnc3[nH]ccc23)s1)C1(Cc2ccccc2)CCCNC1` (stereo not shown) [NEU-0001240], for which the Papp at 3 h, 100 µM in series [1] amounted to 18 ×10⁻⁶ cm/s. Moreover, the IC50 was 1260 nM in series [2] (setting [9]); 1580 nM in series [2] (setting [10]); 1580 nM in series [3]; 20000 nM in series [4]; over 25100 nM in series [5]; 6.31 nM in series [6]. In addition, the results for the IC50 in series [7] and in series [8] were 501 nM and 316 nM, respectively.
On to `Cc1cc(Nc2cc(C3CC3)[nH]n2)nc(N2CCCCC2)n1` [NEU-0001127], for which the apparent permeability (Papp) at 3 h, 100 µM in series [1] was 38 ×10⁻⁶ cm/s. Besides, the IC50 in series [2] (setting [9]) was 10000 nM; in series [2] (setting [10]) it was over 50100 nM; in series [3], 20000 nM; in series [4], 1000 nM; in series [5] it was 1000 nM; in series [6] it was 20000 nM. The IC50 in series [7] is 631 nM; in series [8], 3980 nM.
`CN(C)Cc1ccc(-c2[nH]c3ncc(C#N)cc3c2-c2ccccc2)cc1` [NEU-0001206]: in series [1], the Papp at 3 h, 100 µM is 46 ×10⁻⁶ cm/s. Also, the IC50 was over 50100 nM in series [2] (setting [10]); over 25100 nM in series [3]; 251 nM in series [4]; over 25100 nM in series [5]; 12600 nM in series [6]; 501 nM in series [7]. The IC50 in series [8] is 126 nM.
`O=S1(=O)Cc2ccc(Nc3nccc(-c4ccc(F)cc4)n3)cc2C1` [NEU-0001142] showed a Papp at 3 h, 100 µM in series [1] of 7.7 ×10⁻⁶ cm/s. Further, the IC50 is 2510 nM in series [2] (setting [9]); 10000 nM in series [2] (setting [10]); 631 nM in series [3]; 501 nM in series [4]; 200 nM in series [5]; over 25100 nM in series [6]. For the same compound, the figures for the IC50 in series [7] and in series [8] were 631 nM and 39.8 nM, respectively.
`CCCNc1nc(Nc2cnn(C)c2)c2c(=O)[nH]ccc2n1` [NEU-0001187] returned a Papp at 3 h, 100 µM in series [1] of 33 ×10⁻⁶ cm/s. Besides, the IC50 in series [2] (setting [9]) is 3980 nM; in series [2] (setting [10]), over 50100 nM; in series [3] it was 1580 nM; in series [4], 63.1 nM; in series [5], 501 nM; in series [6], 1260 nM. Further, the values for the IC50 in series [7] and in series [8] were 2.51 nM and 15.8 nM, respectively.
